Columns and labels:
Homo sapiens [1] = species on record: Homo sapiens; assay: Inhibition of human platelet aggregation induced by thrombin; format: functional
[2] = biological target: T1, Proteinase-activated receptor 1 (Homo sapiens, UniProt P25116); assay: Inhibitory concentration against potent thrombin receptor-1 (PAR-1) on human platelets
T1 sequence (P25116 whole entry): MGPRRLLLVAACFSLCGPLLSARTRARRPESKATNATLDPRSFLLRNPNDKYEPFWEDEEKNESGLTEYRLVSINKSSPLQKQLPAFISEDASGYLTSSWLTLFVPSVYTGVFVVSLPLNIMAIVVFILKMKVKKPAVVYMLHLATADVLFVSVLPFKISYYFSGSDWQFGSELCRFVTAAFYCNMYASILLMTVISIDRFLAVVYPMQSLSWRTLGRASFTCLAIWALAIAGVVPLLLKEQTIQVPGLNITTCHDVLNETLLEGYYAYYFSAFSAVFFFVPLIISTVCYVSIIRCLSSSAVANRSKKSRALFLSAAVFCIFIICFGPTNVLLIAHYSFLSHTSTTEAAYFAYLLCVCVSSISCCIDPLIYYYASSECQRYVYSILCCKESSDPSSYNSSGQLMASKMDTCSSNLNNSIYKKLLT

Homo sapiens [3] = species on record: Homo sapiens; assay: Inhibition of human platelet aggregation induced by high affinity thrombin receptor agonist peptide( ha-TRAP); format: functional
[4] = biological target: T1, Proteinase-activated receptor 1; assay: Inhibitory concentration against potent thrombin receptor-1 (PAR-1) on human platelets; Inactive

Structure (SMILES)	IC50 [2] [nM]	IC50 [4]	further results
CCCCn1c(=N)n(CC(=O)c2cc(C(C)(C)C)c(O)c(C(C)(C)C)c2)c2ccccc21	359		IC50 (Homo sapiens [1]): 10000 nM; IC50 (Homo sapiens [3]): 825 nM
CC(C)(C)c1cc(C(=O)Cn2c(N)nc3ccccc32)cc(C(C)(C)C)c1O	1500		
COc1ccc(OC)c(C(=O)Cn2c(=O)n(Cc3ccccc3)c3ccccc32)c1		Not Active	
O=C(Cn1c(=O)n(Cc2ccccc2)c2ccccc21)c1ccc(F)cc1		Not Active	
Cn1c(=N)n(CC(=O)c2cc(C(C)(C)C)c(O)c(C(C)(C)C)c2)c2ccccc21	900		
CC(C)(C)c1cc(C(=O)Cn2c(=N)n(CCN3CCOCC3)c3ccccc32)cc(C(C)(C)C)c1O	98		IC50 (Homo sapiens [1]): > 10000 nM; IC50 (Homo sapiens [3]): 2000 nM
CC(C)(C)c1cc(C(=O)Cn2c(=N)n(CCN3CCCCC3)c3ccccc32)cc(C(C)(C)C)c1O	2870		
Cc1ccc(Cn2c(=N)n(CC(=O)c3cc(C(C)(C)C)c(O)c(C(C)(C)C)c3)c3ccccc32)cc1	33		IC50 (Homo sapiens [1]): 1500 nM; IC50 (Homo sapiens [3]): 575 nM
CC(C)(C)c1cc(C(=O)Cn2c(=N)n(Cc3ccccc3)c3ccccc32)cc(C(C)(C)C)c1O	65		IC50 (Homo sapiens [1]): 600 nM; IC50 (Homo sapiens [3]): 265 nM
Cc1ccc(C(=O)Cn2c(=O)n(Cc3ccccc3)c3ccccc32)c(C)c1		Not Active	
Cn1c(=O)n(CC(=O)c2cc(C(C)(C)C)c(O)c(C(C)(C)C)c2)c2ccccc21		Not Active	
O=C(Cn1c(=O)n(Cc2ccccc2)c2ccccc21)c1ccc(O)c(O)c1		Not Active	
O=C(Cn1c(=O)n(Cc2ccccc2)c2ccccc21)c1ccc(Cl)cc1Cl		Not Active	
CCCCCCCn1c(=N)n(CC(=O)c2cc(C(C)(C)C)c(O)c(C(C)(C)C)c2)c2ccccc21	964		
Cc1cc(C(=O)Cn2c(=O)n(Cc3ccccc3)c3ccccc32)ccc1Cl		Not Active	
Cc1ccc(C(=O)Cn2c(=O)n(Cc3ccccc3)c3ccccc32)cc1		Not Active	
CC(C)(C)c1cc(C(=O)Cn2c(=N)n(Cc3ccc(Cl)c(Cl)c3)c3ccccc32)cc(C(C)(C)C)c1O	1320		
CC(C)(C)c1ccc(Cn2c(=N)n(CC(=O)c3cc(C(C)(C)C)c(O)c(C(C)(C)C)c3)c3ccccc32)cc1	734		
O=C(Cn1c(=O)n(Cc2ccccc2)c2ccccc21)c1ccc(Br)cc1		Not Active	
CCC(=O)c1cc(C(C)(C)C)c(O)c(C(C)(C)C)c1		Not Active	
N#Cc1ccc(C(=O)Cn2c(=O)n(Cc3ccccc3)c3ccccc32)cc1		Not Active	

Reference: ChEMBL document CHEMBL1133830, “Potent, low molecular weight thrombin receptor antagonists” (Bioorg Med Chem Lett, 2001)
